Measured values taken from patent US20240108641A1, “COMPOSITIONS FOR ORAL ADMINISTRATION OF ZOLEDRONIC ACID OR RELATED COMPOUNDS FOR TREATING DISEASE” (ANTECIP BIOVENTURES II LLC, priority 2012, published 2024).

Columns and labels:
[1] = system: knee bone marrow lesions (BML); experiment: clinical study in knee osteoarthritis with bone marrow lesions, BML size on MRI; format: in vivo, human; settings: 5 mg intravenous; for average BML area decreased as compared to placebo: 6 months; for Change in BML Size / Change in BML Size, Difference from Placebo: baseline to 6 months
Description: (§1) Some embodiments related to joint pain, bone marrow lesions, and osteoarthritis were conceived as a result of analyzing data from a clinical study. Some of the results of this study were reported by Laslett et al. in Ann Rheum Dis 2012; 71:1322-1328. Some of the description and data reported below was not published prior to filing the present application. Fifty-two (52) patients with clinical knee osteoarthritis and knee bone marrow lesions (BML) were randomized to receive either intravenous zoledronic acid (5 mg) or placebo in a double blind fashion. All patients had to have at least one bone marrow lesion (BML) in the affected knee on magnetic resonance imaging (MRI). All patients had x-ray of the knee for determination of joint space narrowing (JSN), which was graded according to the Osteoarthritis Research Society International (OARSI) atlas. Patients had either no joint space narrowing (OARSI Grade 0), or greater degrees of joint space narrowing (OARSI Grade 1 and Grade 2). Twenty six patients were treated with zoledronic acid (8, 6, and 12 with OARSI Grades 0, 1, and 2, respectively). Twenty six patients received placebo (8, 8, and 10 with OARSI Grades 0, 1 and 2, respectively).
BMLs were evaluated using proton density-weighted fat saturation MR images. BMLs were scored using Osiris software (University of Geneva, Geneva, Switzerland). The maximum size was measured in mm^2 using software cursors applied to the greatest area of each lesion. The lesion with the highest score was used if more than one was present at the same site. Each patient was given a BML score (mm^2) at each of the four sites (medial tibial, medial femoral, lateral tibial, and lateral femoral sites) and these were summed to create a total BML score (mm^2). The change in the total area of BMLs from baseline to 6 months was calculated.

[2] = system: arthritis pain (mechanical hyperalgesia); experiment: rat complete Freund's adjuvant (CFA) model of arthritis pain; format: in vivo; settings: oral administration; day 14 post CFA
Experimental: The effect of orally administered zoledronic acid on arthritis pain was examined in the rat complete Freund's adjuvant (CFA) model of arthritis pain. In this model, injection of 100% complete Freund's adjuvant (CFA) in a 75 μL volume into the left hind paws is followed by a 10-14 day period to allow for the development of arthritis pain. Animals were orally administered vehicle (control), zoledronic acid 54 mg/m^2 (or 9 mg/kg), or zoledronic acid 360 mg/m^2 (or 60 mg/kg), divided in three equal daily doses on the first three days post CFA injection. Drug was dissolved in distilled water and prepared fresh daily. Animals were fasted prior to dosing.
Arthritis pain (mechanical hyperalgesia) in the vehicle and drug-treated animals was evaluated on day 14 post CFA injection using a digital Randall-Selitto device (dRS; IITC Life Sciences, Woodland Hills, CA). Animals were placed in a restraint sling that suspended the animal, leaving the hind limbs available for testing. Paw compression threshold was measured by applying increasing pressure to the plantar surface of the hind paw with a dome-shaped tip placed between the 3rd and 4th metatarsus. Pressure was applied gradually over approximately 10 seconds. […]
Reversal of arthritis pain in the ipsilateral (CFA-injected) paw was calculated according to the formula: […]

[3] = system: knee pain (knee osteoarthritis and knee bone marrow lesions); experiment: clinical study in knee osteoarthritis with bone marrow lesions, VAS pain; format: in vivo, human; settings: 5 mg intravenous; for average VAS scores decreased from baseline: 3 months; for average VAS scores reduced as compared to placebo: three months
Description: as §1
Pain intensity was assessed at baseline and at three months, using a 100 mm visual analog scale (VAS), with zero representing no pain and 100 representing extreme pain. The change in pain intensity from baseline to 3 months was calculated.

[4] = system: complex regional pain syndrome (CRPS); experiment: rat tibia fracture model of CRPS, dosing starting four weeks after fracture; format: in vivo
Experimental: A study was performed to evaluate the efficacy of bisphosphonates such as oral zoledronic acid in inhibiting immune responses and pain behavior in a rat fracture model of CRPS.
The effect of orally administered zoledronic acid was examined in the rat tibia fracture model of complex regional pain syndrome (CRPS). CRPS was induced in the rats by fracturing the right distal tibias of the animals and casting the fractured hindpaws for 4 weeks, as described in Guo T Z et al. (Pain. 2004; 108: 95-107).
Starting four weeks after fracture and casting, animals were orally administered either vehicle (control) or zoledronic acid, a dose of 21 mg/kg on the first day and 3 mg/kg/day daily thereafter, or distilled water for 3 weeks (weeks 4-7 post-fracture). Drug was dissolved in distilled water and administered by gavage. Animals were fasted for 4 hours before and 2 hours after dosing. At the end of the 21-day period, casts were removed, and on the following day, the rats were tested for hindpaw pain, edema, and warmth.

[5] = oral 21 mg/kg first day then 3 mg/kg/day, weeks 4-7 post-fracture

## O=P(O)(O)C(O)(Cn1ccnc1)P(=O)(O)O [zoledronic acid]
[1]; OARSI Grade 0
  average BML area decreased as compared to placebo: approximately 190 mm^2
  Change in BML Size: −244 mm^2
  Change in BML Size, Difference from Placebo: −190 mm^2
[1]; OARSI Grades 1-2
  average BML area decreased as compared to placebo: approximately 33 mm^2
  Change in BML Size: −117 mm^2
  Change in BML Size, Difference from Placebo: −33 mm^2
[2]
  arthritis pain thresholds compared to vehicle: significantly improved
[3]; OARSI Grade 0
  average VAS scores decreased from baseline: approximately 25 mm
  Change in VAS Pain Scores at Three Months: −24.6 mm
  Change in VAS Pain Scores at Three Months, Difference from Placebo: −15.0 mm
  average VAS scores reduced as compared to placebo: 15 mm
[3]; OARSI Grade 1
  average VAS scores decreased from baseline: ~21 mm
[3]; OARSI Grade 2
  average VAS scores decreased from baseline: 9 mm
[3]; All patients
  Pain Reduction Compared to Placebo at Three Months, VAS Change: −4.8 mm
[3]; Baseline VAS < 50 mm
  Change in VAS Pain Scores at Three Months: −7.3 mm
  Change in VAS Pain Scores at Three Months, Difference from Placebo: −0.6 mm
[3]; Baseline VAS ≥ 50 mm
  Change in VAS Pain Scores at Three Months: −26.2 mm
  Change in VAS Pain Scores at Three Months, Difference from Placebo: −9.0 mm
[3]; Baseline VAS ≥ 50 mm + OARSI Grade 0
  Pain Reduction Compared to Placebo at Three Months, VAS Change: −19.4 mm
[3]; OARSI Grades 1-2
  Change in VAS Pain Scores at Three Months: −13.2 mm
  Change in VAS Pain Scores at Three Months, Difference from Placebo: −0.28 mm
  average VAS scores reduced as compared to placebo: 0.28
[3]; baseline VAS 50 mm
  average VAS scores reduced as compared to placebo: 9 mm
[3]; baseline VAS<50 mm
  average VAS scores reduced as compared to placebo: 0.6
[4]; [5]
  hindlimb weight bearing: over 90 % of normal
  overall effect compared to vehicle treated animals: reversed pain and restored weight bearing
  von Frey pain thresholds for the right (fracture) hindpaw, change as compared to baseline: over 100%
[4]; oral, FIG. 18
  pain relief, dosing four weeks after fracture versus dosing at the time of injury: significantly greater improvement of pain relief
